In assay [1] the test system is PC-3 cells. In words: Inhibition of cell growth (MTT), PC-3 cells. The note with it: Homo sapiens, PC-3, 120 h, read-out: IC50 PC-3.
Experimental: (§1) HCT-116 and PC-3 cells were cultured at 37° C. with 5% CO2 and in 10% fetal bovine serum with McCoy's 5A modified medium and F-12 K medium respectively. Cells were plated on 96 well plates at a density of 2,000-4,000/well in the volume of 100 μL medium. […] The control wells contained 1% dimethylsulfoxide only in their medium. After further incubation of three to five days to allow cells grow before the control cells reach confluence, 15 μL/well MTT reagent (5 mg/mL) were added and incubated for 4 h. After the incubation, the medium was removed and the newly generated formazan solubilized with dimethylsulfoxide (100 μL/well) and measured at 540 nm. The absorption data were fit into equation and calculated for IC50 values through use of the program KaleidaGraph (Synergy Software). The fitting equation for IC50 is y=a+b/(1+(x/IC50)); x is the compound concentration, a is the background absorption at 540 nm, and b is the absorption at zero compound concentration.
Assay [2] relates to HCT-116 cells. The assay can be described thus: Inhibition of cell growth (MTT), HCT-116 cells. As to conditions: Homo sapiens, HCT-116, 120 h, read-out: IC50 HCT 116 cells.
Experimental: as §1
In assay [3] the target is T1, human CK2 (Homo sapiens, UniProt P68400).
T1 construct: Full Length His-tagged Human CK2 was cloned, expressed, and purified; His tag; made in house; host or cells: E. coli
T1 sequence (P68400 whole entry): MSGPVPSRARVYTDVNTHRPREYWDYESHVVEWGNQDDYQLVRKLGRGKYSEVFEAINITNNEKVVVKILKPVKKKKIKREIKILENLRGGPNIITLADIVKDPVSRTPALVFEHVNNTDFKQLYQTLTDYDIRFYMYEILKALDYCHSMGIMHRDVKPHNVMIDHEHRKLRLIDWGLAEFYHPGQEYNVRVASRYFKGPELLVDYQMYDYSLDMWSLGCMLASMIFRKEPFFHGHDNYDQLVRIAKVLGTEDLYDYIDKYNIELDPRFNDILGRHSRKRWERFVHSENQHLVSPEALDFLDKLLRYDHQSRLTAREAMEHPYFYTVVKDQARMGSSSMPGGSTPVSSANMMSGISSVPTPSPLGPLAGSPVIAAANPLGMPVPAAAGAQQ
In words: CK2 protein kinase inhibition assay (spectrophotometric PK/LDH coupled assay). Format: biochemical. As to the method:
CK2 protein kinase activity was measured through use of a spectrophotometric PK/LDH coupled assay to detect ATP turnover. Full Length His-tagged Human CK2 was cloned, expressed, and purified from an E. coli expression system. The peptide substrate for CK2 phosphorylation was […] (Genscript Corporation, Piscataway, N.J., USA). […] Prior to the addition of ATP to initiate the phosphorylation reaction, CK2 enzyme was pre-incubated with inhibitors and other assay components for 5 min. Progress of the reaction was continuously monitored by the change in UV/Vis absorbance at 340 nm. […] In the case of very potent binding, tight-binding methods were employed to determine Ki.

Our source for the IC50 and Ki values is patent US7517882B2, “Protein kinase inhibitors” (Polaris Group, priority 2006, dated 2009).

Bounds are passed on as bounds.

On to `O=C1CCCCc2cnn3c(NC4CC4)nc(nc23)Nc2cccc(c2)N1` [Compound 11a, (11,14)3,5N-{cyclopropyl-pyrazolo[1,5-a][1,3,5]triazin-4-ylamino}-(2N,4N)-phenyl-1,5-diaza-cyclotetradeca-8-one], for which the IC50 in assay [1] and in assay [2] was under 1000 nM in each case.
With `O=C1CCCCc2cnn3c(Nc4cccnc4)nc(nc23)Nc2cccc(c2)N1` [Compound 11d, (11,14)3,5N-{pyrid-3-yl-pyrazolo[1,5-a][1,3,5]triazin-4-yl-amino}-(2N,4N)-phenyl-1,5-diaza-cyclotetradeca-8-one], the IC50 in assay [1] and in assay [2] was under 1000 nM throughout. For the same compound, the Ki in assay [3] was under 100 nM.
Consider `CCOc1cccc(Nc2nc3nc4c(cnn24)CCCCC(=O)Nc2cccc(c2)N3)c1` [Compound 11e, (11,14)3,5N-{(3-ethoxyphenyl)-pyrazolo[1,5-a][1,3,5]triazin-4-yl-amino}-(2N,4N)-phenyl-1,5-diaza-cyclotetradeca-8-one], for which the IC50 in assay [1] and in assay [2] was under 1000 nM each time. Moreover, the Ki in assay [3] is under 100 nM.
As for `CN1CCC(N(C)C(=O)c2cccc(Nc3nc4nc5c(cnn35)CCCCC(=O)Nc3cccc(c3)N4)c2)C1` (centres unmarked) [Compound 11g, (11,14)3,5N-{3-(3-{[methyl(1-methylpyrrolidin-3-yl)amino]carbonyl}phenyl)-pyrazolo[1,5-a][1,3,5]triazin-4-yl-amino}-(2N,4N)-phenyl-1,5-diaza-cyclotetradeca-8-one], the IC50 in assay [1] and in assay [2] was under 1000 nM throughout. In assay [3], the Ki was under 100 nM.
`CN1CCN(C(=O)c2cccc(Nc3nc4nc5c(cnn35)CCCCC(=O)Nc3cccc(c3)N4)c2)CC1` [Compound 11h, (11,14)3,5N-{3-(4-methylpiperazin-1-ylcarbonyl)phenyl-pyrazolo[1,5-a][1,3,5]triazin-4-yl-amino}-(2N,4N)-phenyl-1,5-diaza-cyclotetradeca-8-one]: the IC50 in assay [1] and in assay [2] was under 1000 nM throughout. The compound further displayed a Ki in assay [3] of under 100 nM.
Take `CN(C)C1CCN(C(=O)c2cccc(Nc3nc4nc5c(cnn35)CCCCC(=O)Nc3cccc(c3)N4)c2)C1` (centres unmarked) [Compound 11i]: the IC50 in assay [1] and in assay [2] was under 1000 nM each time. In addition, the Ki in assay [3] was under 100 nM.
As to `CCN(CC)C(=O)c1cccc(Nc2nc3nc4c(cnn24)CCCCC(=O)Nc2cccc(c2)N3)c1` [Compound 11j, (11,14)3,5N-{4-[(3-{3-(diethylamino)carbonyl}phenyl)amino]-pyrazolo[1,5-a][1,3,5]triazin-4-yl-amino}-(2N,4N)-phenyl-1,5-diaza-cyclotetradeca-8-one], the IC50 in assay [1] and in assay [2] was under 1000 nM throughout. In assay [3], this compound returned a Ki of under 100 nM.
Turning to `CN(C)CCNC(=O)c1cccc(Nc2nc3nc4c(cnn24)CCCCC(=O)Nc2cccc(c2)N3)c1` [Compound 11k, (11,14)3,5N-{4-{[3-({[2-(dimethylamino)ethyl]-amino}carbonyl)phenyl]amino}-pyrazolo[1,5-a][1,3,5]triazin-4-yl-amino}-(2N,4N)-phenyl-1,5-diaza-cyclotetradeca-8-one], the IC50 in assay [1] and in assay [2] was under 1000 nM in each case. The compound also showed a Ki in assay [3] of under 100 nM.
Take `O=C1CCCCc2cnn3c(Nc4cccc(C(=O)N5CC(O)C5)c4)nc(nc23)Nc2cccc(c2)N1` [Compound 11l, (11,14)3,5N-{4-({3-[(3-hydroxyazetidin-1-yl)carbonyl]phenyl}amino)-pyrazolo[1,5-a][1,3,5]triazin-4-yl-amino}-(2N,4N)-phenyl-1,5-diaza-cyclotetradeca-8-one]: the IC50 in assay [1] and in assay [2] was under 1000 nM each time. For the same compound, the Ki in assay [3] was under 100 nM.
On to `CN1CC(NC(=O)c2cccc(Nc3nc4nc5c(cnn35)CCCCC(=O)Nc3cccc(c3)N4)c2)C1` [Compound 11m], for which the IC50 in assay [1] and in assay [2] was under 1000 nM each time. The compound also registered a Ki in assay [3] of under 100 nM.
For `CN(C)CCN(C)C(=O)c1cccc(Nc2nc3nc4c(cnn24)CCCCC(=O)Nc2cccc(c2)N3)c1` [Compound 11n, (11,14)3,5N-{4-[(3-{[[2-(dimethylamino)ethyl](methyl)-amino]carbonyl}phenyl)amino]-pyrazolo[1,5-a][1,3,5]triazin-4-yl-amino}-(2N,4N)-phenyl-1,5-diaza-cyclotetradeca-8-one], the concentration for half-maximal inhibition (IC50) in assay [1] and in assay [2] was under 1000 nM each time. This compound also yielded a Ki in assay [3] of under 100 nM.
As for `CN1CCC(N(C)C(=O)c2cccc(Nc3nc4nc5c(cnn35)CCCCC(=O)Nc3cccc(c3)N4)c2)CC1` [Compound 11o, (11,14)3,5N-{4-[(3-{[methyl(1-methylpiperidin-4-yl)amino]carbonyl}-phenyl)amino]-pyrazolo[1,5-a][1,3,5]triazin-4-yl-amino}-(2N,4N)-phenyl-1,5-diaza-cyclotetradeca-8-one], the IC50 in assay [2] is under 1000 nM. In assay [3], the Ki is under 100 nM.
In the case of `CCN(CC)C1CCN(C(=O)c2cccc(Nc3nc4nc5c(cnn35)CCCCC(=O)Nc3cccc(c3)N4)c2)C1` (centres unmarked) [Compound 11p, (11,14)3,5N-{[(3-{[3-(diethylamino)pyrrolidin-1-yl]carbonyl}phenyl)amino]-pyrazolo[1,5-a][1,3,5]triazin-4-yl-amino}-(2N,4N)-phenyl-1,5-diaza-cyclotetradeca-8-one], the IC50 in assay [1] and in assay [2] was under 1000 nM throughout. For the same compound, the Ki in assay [3] was under 100 nM.
As for `CCN(CC)C1CN(C(=O)c2cccc(Nc3nc4nc5c(cnn35)CCCCC(=O)Nc3cccc(c3)N4)c2)C1` [Compound 11q, (11,14)3,5N-{[(3-{[3-(diethylamino)azetidin-1-yl]carbonyl}-phenyl)amino]-pyrazolo[1,5-a][1,3,5]triazin-4-yl-amino}-(2N,4N)-phenyl-1,5-diaza-cyclotetradeca-8-one], the IC50 in assay [1] and in assay [2] was under 1000 nM throughout. The compound further displayed a Ki in assay [3] of under 100 nM.
Turning to `O=C1CCCCc2cnn3c(Nc4cccc(C(=O)N5CCNCC5)c4)nc(nc23)Nc2cccc(c2)N1` [Compound 11r, (11,14)3,5N-{{[3-(piperazin-1-ylcarbonyl)phenyl]amino}-pyrazolo[1,5-a][1,3,5]triazin-4-yl-amino}-(2N,4N)-phenyl-1,5-diaza-cyclotetradeca-8-one], in assay [2], the IC50 was under 1000 nM. Also, the Ki in assay [3] is under 100 nM.
In the same order, the values of `CCN(CC)CCN(C)C(=O)c1cccc(Nc2nc3nc4c(cnn24)CCCCC(=O)Nc2cccc(c2)N3)c1` [Compound 11s] are under 1000 nM and under 100 nM.
Consider `CN(C)C1CCN(C(=O)c2cccc(Nc3cc4nc5c(cnn35)CCCCC(=O)Nc3cccc(c3)N4)c2)C1` (centres unmarked) [Compound 18a, (11,14)3,5N-{[(3-Dimethylamino-pyrrolidine-1-carbonyl)-phen-3-yl]-pyrazolo[1,5-a]pyrimidin-2,4-yl-diamino}-(2N,4N)-phenyl-1,5-diaza-cyclotetradecan-6-one], for which the IC50 in assay [1] and in assay [2] was under 3000 nM throughout. This compound displayed a Ki in assay [3] of under 100 nM.
Take `O=C1CCCCc2cnn3c(NC4CC4)cc(nc23)Nc2cccc(c2)N1` [Compound 18b]: the IC50 in assay [1] and in assay [2] was under 3000 nM in each case. In assay [3], this compound returned a Ki of under 100 nM.

In general, IC50 refers to the concentration that gives 50% inhibition. In general, Ki refers to the equilibrium dissociation constant of an inhibitor or competing ligand from its target.
